From the supplement of paper PMC10307832

Legend:
Experiment in all cases: relative viability (nuclei count vs DMSO), 5 days (fraction); higher = more cells survive
Vorinostat + Decitabine = compound: O=C(CCCCCCC(=O)Nc1ccccc1)NO [Vorinostat] + Nc1ncn([C@H]2C[C@H](O)[C@@H](CO)O2)c(=O)n1 [Decitabine] (partner 2 µM)
Outline: (§1)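 Five library-drug doses in √10 steps were combined with a fixed anchor-drug dose, or a single drug was given alone, by pin tool to lung cancer cell lines in 1536-well plates the day after seeding. Nuclei were stained and counted after 5 days. Relative viability is the nuclei count in treated wells over that in vehicle wells, taken as the median of duplicate plates.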

Vorinostat + AZD7762 = compound: O=C(CCCCCCC(=O)Nc1ccccc1)NO [Vorinostat] + NC(=O)Nc1cc(-c2cccc(F)c2)sc1C(=O)N[C@H]1CCCNC1 [AZD7762] (partner 0.2 µM)
Outline: as §1

Vorinostat + Trametinib = compound: O=C(CCCCCCC(=O)Nc1ccccc1)NO [Vorinostat] + CC(=O)Nc1cccc(-n2c(=O)n(C3CC3)c(=O)c3c(Nc4ccc(I)cc4F)n(C)c(=O)c(C)c32)c1 [Trametinib] (partner 0.02 µM)
Outline: as §1

Vorinostat + Pictilisib = compound: O=C(CCCCCCC(=O)Nc1ccccc1)NO [Vorinostat] + CS(=O)(=O)N1CCN(Cc2cc3nc(-c4cccc5[nH]ncc45)nc(N4CCOCC4)c3s2)CC1 [Pictilisib] (partner 1 µM)
Outline: as §1

Vorinostat + Pemetrexed = compound: O=C(CCCCCCC(=O)Nc1ccccc1)NO [Vorinostat] + Nc1nc2[nH]cc(CCc3ccc(C(=O)N[C@@H](CCC(=O)O)C(=O)O)cc3)c2c(=O)[nH]1 [Pemetrexed] (partner 0.2 µM)
Outline: as §1

| Cell Line | relative viability (Vorinostat + Decitabine; first compound 0.253 µM) | relative viability (Vorinostat + Decitabine; first compound 0.8 µM) | relative viability (Vorinostat + Decitabine; first compound 2.53 µM) | relative viability (Vorinostat + Decitabine; first compound 8 µM) | relative viability (Vorinostat + AZD7762; first compound 0.253 µM) | relative viability (Vorinostat + AZD7762; first compound 0.8 µM) | relative viability (Vorinostat + AZD7762; first compound 2.53 µM) | relative viability (Vorinostat + AZD7762; first compound 8 µM) | relative viability (Vorinostat + Trametinib; first compound 0.253 µM) | relative viability (Vorinostat + Trametinib; first compound 0.8 µM) | relative viability (Vorinostat + Trametinib; first compound 2.53 µM) | relative viability (Vorinostat + Trametinib; first compound 8 µM) | relative viability (Vorinostat + Pictilisib; first compound 0.253 µM) | relative viability (Vorinostat + Pictilisib; first compound 0.8 µM) | relative viability (Vorinostat + Pictilisib; first compound 2.53 µM) | relative viability (Vorinostat + Pictilisib; first compound 8 µM) | relative viability (Vorinostat + Pemetrexed; first compound 0.253 µM) | relative viability (Vorinostat + Pemetrexed; first compound 0.8 µM) | relative viability (Vorinostat + Pemetrexed; first compound 2.53 µM) | relative viability (Vorinostat + Pemetrexed; first compound 8 µM) |
| --- | --- | --- | --- | --- | --- | --- | --- | --- | --- | --- | --- | --- | --- | --- | --- | --- | --- | --- | --- | --- |
| NCI-H1437 | 0.55 | 0.454 | 0.285 | 0.235 | 1.23 | 0.9 | 0.426 | 0.197 | 0.481 | 0.368 | 0.23 | 0.155 | 0.466 | 0.167 | 0.107 | 0.088 | 0.308 | 0.3 | 0.187 | 0.151 |
| HOP-62 | 0.17 | 0.209 | 0.169 | 0.0871 | 0.258 | 0.518 | 0.145 | 0.0514 | 0.509 | 0.406 | 0.16 | 0.0861 | 0.966 | 0.205 | 0.203 | 0.079 | 0.393 | 0.28 | 0.212 | 0.0997 |
| LCLC-97TM1 | 0.236 | 0.264 | 0.129 | 0.0801 | 0.129 | 0.256 | 0.205 | 0.0628 | 0.238 | 0.207 | 0.142 | 0.074 |  | 0.151 | 0.168 | 0.0934 | 0.155 | 0.149 | 0.146 | 0.0924 |
| NCI-H1975 | 0.435 | 0.441 | 0.165 | 0.113 | 0.791 | 0.641 | 0.272 | 0.197 | 0.395 | 0.311 | 0.123 | 0.106 | 0.321 | 0.242 | 0.0978 | 0.118 | 0.323 | 0.243 | 0.183 | 0.133 |
| NCI-H520 | 0.581 | 0.474 | 0.297 | 0.157 |  |  |  |  | 0.959 | 0.549 | 0.212 | 0.124 | 0.369 | 0.213 | 0.21 | 0.146 | 0.831 | 0.663 | 0.322 | 0.17 |
| UMC-11 | 0.613 | 0.402 | 0.179 | 0.134 |  |  |  |  | 0.845 | 0.245 | 0.0839 | 0.0678 | 0.975 | 0.29 | 0.0923 | 0.0756 | 0.756 | 0.453 | 0.119 | 0.0862 |
| NCI-H2347 | 0.644 | 0.62 | 0.508 | 0.24 | 0.595 | 0.696 | 0.456 | 0.226 | 0.242 | 0.327 | 0.226 | 0.203 | 0.696 | 0.377 | 0.199 | 0.211 | 0.427 | 0.41 | 0.416 | 0.299 |
| CAL-12T |  |  |  |  | 0.639 | 0.603 | 0.337 | 0.162 | 0.433 | 0.499 | 0.223 | 0.0898 | 0.48 | 0.435 | 0.209 | 0.149 | 1.36 | 1.31 | 1.08 | 0.126 |
| COR-L23 | 0.373 | 0.301 | 0.136 | 0.0929 |  |  |  |  | 0.79 | 0.447 | 0.159 | 0.0825 | 0.728 | 0.451 | 0.0944 | 0.0511 | 0.2 | 0.182 | 0.148 | 0.12 |
| NCI-H2087 | 0.271 | 0.207 | 0.105 | 0.051 | 1.35 | 1.04 | 0.498 | 0.102 | 0.202 | 0.158 | 0.141 | 0.087 | 1.32 | 0.634 | 0.275 | 0.133 | 0.637 | 0.617 | 0.347 | 0.132 |
| NCI-H23 | 0.299 | 0.241 | 0.139 | 0.155 | 0.174 | 0.13 | 0.0979 | 0.0915 | 0.606 | 0.405 | 0.166 | 0.129 | 0.599 | 0.391 | 0.181 | 0.161 | 0.842 | 0.713 | 0.32 | 0.181 |
| ABC-1 | 1.33 | 0.896 | 0.421 | 0.158 | 0.875 | 0.587 | 0.309 | 0.125 |  |  |  |  | 0.981 | 0.509 | 0.168 | 0.118 |  |  |  |  |
| SW 1573 | 0.514 | 0.355 | 0.14 | 0.0457 |  |  |  |  | 0.709 | 0.596 | 0.357 | 0.0536 | 0.543 | 0.45 | 0.24 | 0.0767 | 1.2 | 1.05 | 0.346 | 0.0659 |
| NCI-H1703 |  |  |  |  | 0.126 |  | 0.189 | 0.0985 |  |  |  |  | 0.31 | 0.233 | 0.363 | 0.2 |  |  |  |  |
| NCI-H2126 | 0.58 | 0.533 | 0.332 | 0.19 | 0.999 | 0.989 | 0.774 | 0.208 | 0.612 | 0.533 | 0.296 | 0.166 | 0.495 | 0.42 | 0.334 | 0.221 | 0.776 | 0.666 | 0.419 | 0.208 |
| SK-MES-1 | 0.362 | 0.364 | 0.212 | 0.163 |  |  |  |  | 0.728 | 0.71 | 0.454 | 0.239 | 0.469 | 0.349 | 0.231 | 0.0945 | 1.08 | 1.07 | 0.553 | 0.207 |
| SK-LU-1 | 0.655 | 0.669 | 0.494 | 0.196 |  |  |  |  | 0.495 | 0.474 | 0.41 | 0.205 | 0.595 | 0.55 | 0.351 | 0.133 | 0.936 | 0.807 | 0.64 | 0.179 |
| LC-2-ad | 0.839 | 0.69 | 0.469 | 0.227 | 0.867 | 0.632 | 0.226 | 0.159 | 0.936 | 0.776 | 0.435 | 0.221 | 0.568 | 0.292 | 0.0981 | 0.0042 | 0.273 | 0.268 | 0.263 | 0.19 |
